Molecules are shown by their SMILES.

The subject of test [1] is MGH049, MGH045-2A and MGH073-2B cells. In words: Cell colony formation assay (crystal violet, FIG. 1). The format is cell-based, human. To be noted: Compound No. 1 5 μM, 14 days. The text has this: FIG. 1. […]. For each cell line, all dishes were fixed, stained and photographed at the same time.
The MGH049, MGH045-2A and MGH073-2B cell lines were established at Massachusetts General Hospital. MGH049 is described in Friboulet L, et al. Cancer Discov. 2014 June; 4(6):662-73. MGH045 is described in Friboulet L, et al. Cancer Discov. 2014 June; 4(6):662-73). MGH045-1A, is described in Science, 2014, December 19; 346(6216):1480-1).
All human lung cancer samples were obtained from patients with informed consent, and all procedures were carried out under an Institutional Review Board (IRB)-approved protocol. The cell lines were cultured in DMEM (ATCC) supplemented with 10% FBS, or in RPMI (ATCC) supplemented with 15% FBS.
Cell colony formation assays were used to assess cell viability and proliferation after compound treatments. Cells were plated into 6-well tissue culture plates (6×10^5 cells/well) in a total volume of 2 mL. After 24 hours, compounds were added to the plates. At the end points of the assays, cells were fixed, stained with crystal violet and photographed.
[…]. […] […].

For test [2], the system named is Ceritinib resistant MGH049 cells. Briefly: Cell colony formation assay with ceritinib resistant MGH049 cells.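 Also: tested compounds are SHP2 inhibitors given alone, colonies fixed and crystal violet stained, DMSO reference taken as the mean of six readings.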 It is filed as cell-based, human. As to conditions: 7 days.

For the compound `CC1(N)CCN(c2cnc(-c3cccc(Cl)c3Cl)c(N)n2)CC1` [Compound No. 1, 6-(4-amino-4-methylpiperidin-1-yl)-3-(2,3-dichlorophenyl)pyrazin-2-amine], the “effect on cell growth as a single agent” value is listed as “no effect on cell growth” in test [1] and “no effect on cell growth” in test [2] (3 μM, ceritinib-resistant cells). The activity at 3 µM in test [2] (Homo sapiens, 168 h, compound of Table 1 (3 μM) alone, normalized to DMSO without compound = 100, read-out: Normalized Crystal Violet abs. (590 nm) DMSO) turned out to be 117%.

(Values after patent US12053470B2, “Pharmaceutical combination comprising an ALK inhibitor and a SHP2 inhibitor” (Novartis AG, priority 2017, dated 2024).)
